Measured values: patent publication US10745365B2, “Luminogenic and fluorogenic compounds and methods to detect molecules or conditions” (Promega Corporation, priority 2005, dated 2020)

Tests used:
[1] = tested on: thermostable luciferase (Luc 146-1H2); assay: Residual active thermostable luciferase after reaction with derivative (Steady Glo); assay type: biochemical
Procedure: (§1) After assembly, the reactions were initiated by addition of 25 μl of the thermostable luciferase stock solution above and mixing the tube contents. A 50 μl sample was immediately removed and placed in a luminometer tube and the light read and the tube then replaced in a tube rack at room temperature. While the light reading was being taken, a 5 μl sample of the remaining reaction (which was kept at room temperature) was diluted into 495 μl of 50 mM BisTris, pH 6.5, 1 mg/ml BSA, 1 mM EDTA prechilled to 4° C. and the tube mixed and placed on ice. The light produced by the samples in the luminometer tubes were re-read at 20, 40, 60, 90 and 120 minutes post enzyme addition. Additional 5 μl samples were taken and diluted as above at 60 and 120 minutes post enzyme addition. Once all these readings and samples were taken, 50 μl of the diluted samples was mixed with 50 μl of Steady Glo in luminometer tubes, the tubes incubated 10 minutes […] then the light produced was read on a Turner TD 20/20 luminometer.

[2] = tested on: thermostable luciferase (Luc 146-1H2); assay: Light emission of thermostable luciferase with luciferin derivatives; assay type: biochemical
Procedure: This stock was used to produce enzyme stock solution having of 200 μg/ml enzyme solution in 1 mg/ml BSA, 200 mM HEPES buffer, pH 8.0, 20 mM MgCl2.
Solutions were made using a 1 M DTT solution, pH adjusted to 8.0, a 20 mM Coenzyme A solution in water (both described in examples above), a 100 mM ATP solution and water to create the following solutions: Sol′ A, 100 μM ATP; Sol′B, 100 μM ATP, 4 mM Coenzyme A; Sol′n C, 100 μM ATP, 400 mM DTT, and; Sol′n D, 100 μM ATP, 4 mM Coenzyme A and 400 mM DTT.
as §1

light value of diluted reaction sample in Steady Glo ([1]; substrate 6.25, +Co A & DTT, sample taken 0 min): 1836
light value of diluted reaction sample in Steady Glo ([1]; substrate 6.25, +Co A & DTT, sample taken 60 min): 1625
light value of diluted reaction sample in Steady Glo ([1]; substrate 6.25, +Co A & DTT, sample taken 120 min): 1622
light value of diluted reaction sample in Steady Glo ([1]; substrate 6.25, +Co A, sample taken 0 min): 1647
light value of diluted reaction sample in Steady Glo ([1]; substrate 6.25, +Co A, sample taken 60 min): 976.8
light value of diluted reaction sample in Steady Glo ([1]; substrate 6.25, +Co A, sample taken 120 min): 921.4
light value of diluted reaction sample in Steady Glo ([1]; substrate 6.25, +DTT, sample taken 0 min): 1631
light value of diluted reaction sample in Steady Glo ([1]; substrate 6.25, +DTT, sample taken 60 min): 1544
light value of diluted reaction sample in Steady Glo ([1]; substrate 6.25, +DTT, sample taken 120 min): 1695
light value of diluted reaction sample in Steady Glo ([1]; substrate 6.25, Alone, sample taken 0 min): 1402
light value of diluted reaction sample in Steady Glo ([1]; substrate 6.25, Alone, sample taken 60 min): 1158
light value of diluted reaction sample in Steady Glo ([1]; substrate 6.25, Alone, sample taken 120 min): 1073
light value of diluted reaction sample in Steady Glo ([1]; substrate 25, +Co A & DTT, sample taken 0 min): 529.6
light value of diluted reaction sample in Steady Glo ([1]; substrate 25, +Co A & DTT, sample taken 60 min): 1268
light value of diluted reaction sample in Steady Glo ([1]; substrate 25, +Co A & DTT, sample taken 120 min): 1329
light value of diluted reaction sample in Steady Glo ([1]; substrate 25, +Co A, sample taken 0 min): 1547
light value of diluted reaction sample in Steady Glo ([1]; substrate 25, +Co A, sample taken 60 min): 777.5
light value of diluted reaction sample in Steady Glo ([1]; substrate 25, +Co A, sample taken 120 min): 588.7
light value of diluted reaction sample in Steady Glo ([1]; substrate 25, +DTT, sample taken 0 min): 1116
light value of diluted reaction sample in Steady Glo ([1]; substrate 25, +DTT, sample taken 60 min): 1372
light value of diluted reaction sample in Steady Glo ([1]; substrate 25, +DTT, sample taken 120 min): 1393
light value of diluted reaction sample in Steady Glo ([1]; substrate 25, Alone, sample taken 0 min): 1345
light value of diluted reaction sample in Steady Glo ([1]; substrate 25, Alone, sample taken 60 min): 973.4
light value of diluted reaction sample in Steady Glo ([1]; substrate 25, Alone, sample taken 120 min): 860.3
light value of diluted reaction sample in Steady Glo ([1]; substrate 100, +Co A & DTT, sample taken 0 min): 1745
light value of diluted reaction sample in Steady Glo ([1]; substrate 100, +Co A & DTT, sample taken 60 min): 1319
light value of diluted reaction sample in Steady Glo ([1]; substrate 100, +Co A & DTT, sample taken 120 min): 1343
light value of diluted reaction sample in Steady Glo ([1]; substrate 100, +Co A, sample taken 0 min): 1127
light value of diluted reaction sample in Steady Glo ([1]; substrate 100, +Co A, sample taken 60 min): 1055
light value of diluted reaction sample in Steady Glo ([1]; substrate 100, +Co A, sample taken 120 min): 770.5
light value of diluted reaction sample in Steady Glo ([1]; substrate 100, +DTT, sample taken 0 min): 1168
light value of diluted reaction sample in Steady Glo ([1]; substrate 100, +DTT, sample taken 60 min): 501.5
light value of diluted reaction sample in Steady Glo ([1]; substrate 100, +DTT, sample taken 120 min): 1478
light value of diluted reaction sample in Steady Glo ([1]; substrate 100, Alone, sample taken 0 min): 1262
light value of diluted reaction sample in Steady Glo ([1]; substrate 100, Alone, sample taken 60 min): 1203
light value of diluted reaction sample in Steady Glo ([1]; substrate 100, Alone, sample taken 120 min): 1273
light reading of reaction sample ([2]; substrate 6.25, +Co A & DTT, 0 min): 77.35
light reading of reaction sample ([2]; substrate 6.25, +Co A & DTT, 20 min): 7.958
light reading of reaction sample ([2]; substrate 6.25, +Co A & DTT, 40 min): 3.656
light reading of reaction sample ([2]; substrate 6.25, +Co A & DTT, 60 min): 2.312
light reading of reaction sample ([2]; substrate 6.25, +Co A & DTT, 90 min): 1.414
light reading of reaction sample ([2]; substrate 6.25, +Co A & DTT, 120 min): 1.134
light reading of reaction sample ([2]; substrate 6.25, +Co A, 0 min): 1829
light reading of reaction sample ([2]; substrate 6.25, +Co A, 20 min): 114
light reading of reaction sample ([2]; substrate 6.25, +Co A, 40 min): 57.82
light reading of reaction sample ([2]; substrate 6.25, +Co A, 60 min): 37.53
light reading of reaction sample ([2]; substrate 6.25, +Co A, 90 min): 24.66
light reading of reaction sample ([2]; substrate 6.25, +Co A, 120 min): 17.02
light reading of reaction sample ([2]; substrate 6.25, +DTT, 0 min): 72.52
light reading of reaction sample ([2]; substrate 6.25, +DTT, 20 min): 5.903
light reading of reaction sample ([2]; substrate 6.25, +DTT, 40 min): 3.073
light reading of reaction sample ([2]; substrate 6.25, +DTT, 60 min): 2.089
light reading of reaction sample ([2]; substrate 6.25, +DTT, 90 min): 1.431
light reading of reaction sample ([2]; substrate 6.25, +DTT, 120 min): 1.125
light reading of reaction sample ([2]; substrate 6.25, Alone, 0 min): 121
light reading of reaction sample ([2]; substrate 6.25, Alone, 20 min): 5.884
light reading of reaction sample ([2]; substrate 6.25, Alone, 40 min): 3.316
light reading of reaction sample ([2]; substrate 6.25, Alone, 60 min): 2.352
light reading of reaction sample ([2]; substrate 6.25, Alone, 90 min): 1.569
light reading of reaction sample ([2]; substrate 6.25, Alone, 120 min): 1.154
light reading of reaction sample ([2]; substrate 25, +Co A & DTT, 0 min): 57.98
light reading of reaction sample ([2]; substrate 25, +Co A & DTT, 20 min): 5.721
light reading of reaction sample ([2]; substrate 25, +Co A & DTT, 40 min): 3.272
light reading of reaction sample ([2]; substrate 25, +Co A & DTT, 60 min): 2.192
light reading of reaction sample ([2]; substrate 25, +Co A & DTT, 90 min): 1.379
light reading of reaction sample ([2]; substrate 25, +Co A & DTT, 120 min): 1.174
light reading of reaction sample ([2]; substrate 25, +Co A, 0 min): 489.2
light reading of reaction sample ([2]; substrate 25, +Co A, 20 min): 45.45
light reading of reaction sample ([2]; substrate 25, +Co A, 40 min): 25.08
light reading of reaction sample ([2]; substrate 25, +Co A, 60 min): 16.96
light reading of reaction sample ([2]; substrate 25, +Co A, 90 min): 11.03
light reading of reaction sample ([2]; substrate 25, +Co A, 120 min): 7.309
light reading of reaction sample ([2]; substrate 25, +DTT, 0 min): 56.59
light reading of reaction sample ([2]; substrate 25, +DTT, 20 min): 3.761
light reading of reaction sample ([2]; substrate 25, +DTT, 40 min): 2.196
light reading of reaction sample ([2]; substrate 25, +DTT, 60 min): 1.668
light reading of reaction sample ([2]; substrate 25, +DTT, 90 min): 1.274
light reading of reaction sample ([2]; substrate 25, +DTT, 120 min): 1.157
light reading of reaction sample ([2]; substrate 25, Alone, 0 min): 59.87
light reading of reaction sample ([2]; substrate 25, Alone, 20 min): 3.176
light reading of reaction sample ([2]; substrate 25, Alone, 40 min): 1.919
light reading of reaction sample ([2]; substrate 25, Alone, 60 min): 1.305
light reading of reaction sample ([2]; substrate 25, Alone, 90 min): 1.178
light reading of reaction sample ([2]; substrate 25, Alone, 120 min): 1.03
light reading of reaction sample ([2]; substrate 100, +Co A & DTT, 0 min): 25.41
light reading of reaction sample ([2]; substrate 100, +Co A & DTT, 20 min): 3.278
light reading of reaction sample ([2]; substrate 100, +Co A & DTT, 40 min): 2.027
light reading of reaction sample ([2]; substrate 100, +Co A & DTT, 60 min): 1.666
light reading of reaction sample ([2]; substrate 100, +Co A & DTT, 90 min): 1.27
light reading of reaction sample ([2]; substrate 100, +Co A & DTT, 120 min): 1.157
light reading of reaction sample ([2]; substrate 100, +Co A, 0 min): 97.88
light reading of reaction sample ([2]; substrate 100, +Co A, 20 min): 10.3
light reading of reaction sample ([2]; substrate 100, +Co A, 40 min): 7.127
light reading of reaction sample ([2]; substrate 100, +Co A, 60 min): 5.562
light reading of reaction sample ([2]; substrate 100, +Co A, 90 min): 3.969
light reading of reaction sample ([2]; substrate 100, +Co A, 120 min): 2.845
light reading of reaction sample ([2]; substrate 100, +DTT, 0 min): 22.47
light reading of reaction sample ([2]; substrate 100, +DTT, 20 min): 2.233
light reading of reaction sample ([2]; substrate 100, +DTT, 40 min): 1.292
light reading of reaction sample ([2]; substrate 100, +DTT, 60 min): 1.164
light reading of reaction sample ([2]; substrate 100, +DTT, 90 min): 1.093
light reading of reaction sample ([2]; substrate 100, +DTT, 120 min): 0.958
light reading of reaction sample ([2]; substrate 100, Alone, 0 min): 20.46
light reading of reaction sample ([2]; substrate 100, Alone, 20 min): 1.18
light reading of reaction sample ([2]; substrate 100, Alone, 40 min): 0.868
light reading of reaction sample ([2]; substrate 100, Alone, 60 min): 0.788
light reading of reaction sample ([2]; substrate 100, Alone, 90 min): 0.627
light reading of reaction sample ([2]; substrate 100, Alone, 120 min): 0.544
SMILES: O=C(O)[C@H]1CSC(c2nc3ccc(OCCCl)cc3s2)=N1 [L’in-CEE]
